Legend:
[1] = test system: purified human basophils; assay: 18 hours stimulation of purified human basophils, marker expression and migration towards CXCL12; format: cell-based
Description: Human basophils were purified to >95% by negative selection with the Human Basophils Enrichment kit (Stemcell Technologies, Grenoble, France) for culture, stimulation and chemotaxis experiments. In some chemotaxis experiments, human basophils were enriched to 3-5% by negative selection with the Human PE positive selection kit (Stemcell Technologies) by using a cocktail of PE-conjugated anti-CD3, CD19 and CD89 (BioLegend). These kits were used following manufacturer instructions.
(§1) Human basophils and mouse splenocytes were cultured in culture medium (RPMI 1640 with Glutamax and 20 mM HEPES, 1 mM Na-pyruvate, non-essential amino acids 1× (all from Life Technologies, Saint-Aubin, France), 100 μg/ml streptomycin and 100 U/ml penicillin (GE Healthcare, Vélizy, France) and 37.5 μM β-mercaptoethanol (Sigma-Aldrich, MO)) supplemented with 20% heat-inactivated fetal calf serum at 37° C. and 5% CO2. 18 hours-long stimulation prior to migration assays were done in culture medium at 1×10^6 cells per mL by adding 1 nM of IL-3 (Peprotech), 1 μM of prostaglandin D2 (PGD2), 1 μM of the PTGDR-1 specific agonist BW245c, 1 μM of the PTGDR-2 specific agonist 13,14-dihydro-15-keto Prostaglandin D2 (DK-PGD2) (all from Cayman chemicals) or 5 ng/mL of anti-IgE (mouse anti-human IgE or rat anti-mouse IgE, both from Thermo Scientific). All cells were washed twice before any migration assay. Control conditions were always with the same vehicle concentration as stimulated conditions.
Migration assays were performed in culture medium supplemented with 0.1% bovine serum albumin (BSA, Sigma-Aldrich) in Transwell 5 μm polycarbonate permeable support 6.5 mm inserts (Corning, N.Y., N.Y.) for 3 hours at 37° C. and 5% CO2 with 1×10^5 purified basophils or 2×10^5 enriched basophils at 1×10^6 cells per mL. Purified or enriched basophils from the upper and bottom chambers were counted at the end of the assay. Basophil content and phenotype was determined by flow cytometry by analyzing more than 100 basophils. Purification or enrichment of human basophils didn't show any difference in the measured migration for all tested chemokines. Migration was defined as the ratio between the number of basophils in the bottom chamber and the number of basophils in the upper plus the bottom chambers. Spontaneous migration was defined as the migration observed without any chemokine in the bottom chamber. Corrected migration was defined as the difference between specific and spontaneous migration. For migration assays the following concentrations (known to be optimal) were used for each compound: Human IL-3: 300 pM (Peprotech), human CCL3, CCL5, and CXCL12: 50 nM; CXCL2 (all from BioLegend) and PGD2 (Cayman chemicals): 100 nM. Migration to human CCL3, CCL5, CXCL2, and PGD2 was done in the presence of IL-3 at 300 pM in both chambers. Migration with IL-3 represents chemokinetism: IL-3 was added in both chambers to the same concentration and compared to the spontaneous migration observed without IL-3. Effects of 24 hours incubation with IL-3 or PGD2 (as described above) on basophil apoptosis were estimated by using the FITC Annexin V Apoptosis Detection Kit from BD Biosciences and used accordingly to manufacturer's instructions.

[2] = test system: WT mouse spleen basophils (splenocytes); assay: CXCR4 expression on mouse spleen basophils ex vivo; format: cell-based; conditions: for CXCR4 expression on other WT splenocytes including T and B cells: data not shown; for CXCR4 expression on spleen WT basophils ex vivo: specific agonists, 24 hours ex vivo
Description: (a) Ex vivo migration of basophils from whole WT or Lyn^−/− splenocytes to CXCL12. (b) CXCR4 expression levels on basophils from the indicated compartments in aged WT (n=16) and Lyn^−/− (n=14) animals. Data are normalized to the mean CXCR4 expression level of WT blood basophils. Statistical analyses placed directly above each bar compared the value for one given compartment to the blood compartment of the corresponding genotype. Statistical analyses between both genotypes for each compartment are also indicated. (c) Basophil number per peritoneum in young WT mice 24 hours after intraperitoneal (ip) injection of PBS or CXCL12 and compared to steady state (−) values (n=13/15/5, respectively). (d) CXCR4 expression levels on basophils from mesenteric lymph nodes (mLN) of young Lyn^−/− mice 24 hours after PBS or PGD2 ip injection normalized to PBS injected mice values' mean. (e) Basophil number in mLN of young Lyn^−/− mice 24 hours after ip injection of the indicated compound(s). (f) CXCR4 expression levels on spleen basophils from 15 weeks old WT mice incubated ex vivo for 24 hours with the indicated compound and normalized to the control values' mean. […] Basophils number and CXCR4 expression were assessed by flow cytometry. Statistical analyses were by unpaired t test with Welch's correction (a-e) and by paired Student t test (f).
(a-b) Relative CXCR4 expression levels on basophils (defined as CD19^−TCRβ^−CD3^−CD49b+FcεRIα^+CD123^+)CD45^lo and T cells (defined as CD45^+CD3^+TCRβ^+ cells) in splenocytes incubated 4 hours without (−) or with the indicated concentration of N6,2′-O-dibutyryl-adenosine 3′:5′-cyclic monophosphate (db-cAMP) or 1 μM PGD2 as determined by flow cytometry. Statistical analyses were by paired Student t tests. NS: not significant, *: P<0.05, **: P<0.01, ***: P<0.001. (c) Relative CXCR4 expression levels on spleen basophils (defined as in (a)) incubated 4 hours without (0) or with the indicated concentration (nM) of the indicated compound(s). DK-PGD2: 13,14-dihydro-15-keto-PGD2 (PTGDR-2 specific agonist); BW245c: 3-(3-Cyclohexyl-3-hydroxypropyl)-2,5-dioxo-(R*,S*)-(±)-4-imidazolineheptanioc acid (PTGDR-1 specific agonist) as determined by flow cytometry. Statistical analysis was by two-ways ANOVA followed by a Tukey's multiple comparisons test. (a-c) Data are normalized to control value mean (per group, n=4 to 8). Data are expressed as mean+s.e.m. All experiments were realized with splenocytes from 8-12 weeks old WT mice.
as §1

[3] = test system: WT mice; assay: CXCL12-induced basophil in vivo migration assay; design: species or system mouse; conditions: intraperitoneal injection, 24 hours
[4] = test system: Lyn−/− mice; assay: PGD2-induced basophil in vivo migration assay; design: species or system mouse
[5] = test system: 12 weeks old Lyn−/− mice; assay: Acceleration of lupus-like disease development by repeated PGD2 injections
Description: (a,b) Proportion of basophils (CD19^−TCRβ^−CD49b^+FcεRIα^+CD123^+)CD45^lo) among singlets living CD45^+ cells in mesenteric (a) and other (cervical, brachial and inguinal) lymph nodes (b) from 10 to 12 weeks-old Lyn^−/− mice injected over ten days with PBS (open circles) or PGD2 alone (open squares), and PGD2 injected and basophil depleted (MAR-1) (open diamonds) or not (IgG) (open triangles) as described in the methods. (c) IA-IE expression levels on LN basophils from mice as in (b). […] (d,e) Proportion of short lived plasma cells CD19^+CD138^+ among singlets living CD45^+ cells in spleen (d) and lymph nodes (e) in the same mice as in (b). (f) Representative immunofluorescence staining for C3 and IgG deposits in kidneys from mice as indicated in (b) (scale bar=1 mm) and their corresponding quantifications in PBS (n=3), PGD2 (n=4), PGD2+control IgG (n=3) and PGD2+MAR-1 (n=3) injected mice. (g) Fold increase in urine albumin/creatinine ratio before and after PBS or PGD2 10 days-long treatment. (a-e) Basophil, plasma cell numbers and IA-IE expression levels were assessed by flow cytometry. (a-g) Data are expressed as means±s.e.m. […] One representative out of three independent experiments is shown.
For acceleration of disease development by PGD2 injections, 12 weeks old Lyn^−/− mice were injected ip with 20 nmoles of PGD2 or vehicle in PBS, every two days for 10 days, for a total of 6 injections. Mice were analyzed the day following the last injection. […] Cell viability was assessed by the utilization of Ghost Dye Violet 510 (Tonbo, San Diego, Calif.).
Quantification of C3 and IgG deposits was realized by using ImageJ software (v1.49p, NIH, USA). A minimum of 20 glomeruli was quantified per kidney. For assessment of kidney function the albumin/creatinine ratio (ACR) was determined. Urine was collected from each mouse before and after treatment. The albumin concentration was measured with a mouse albumin ELISA (Bethyl laboratories, Montgomery, Tex.). A creatinine assay (R&D systems, Minneapolis, Minn.) was used to determine urine creatinine concentrations. Results are expressed as a fold increase corresponding to the ratio of the ACR after/before treatment.

[6] = molecular target: CXCR4 (Homo sapiens, UniProt P61073); conditions: cited from earlier work
[7] = ip every two days over ten days

Chain of CXCR4 (P61073 whole entry, species assumed): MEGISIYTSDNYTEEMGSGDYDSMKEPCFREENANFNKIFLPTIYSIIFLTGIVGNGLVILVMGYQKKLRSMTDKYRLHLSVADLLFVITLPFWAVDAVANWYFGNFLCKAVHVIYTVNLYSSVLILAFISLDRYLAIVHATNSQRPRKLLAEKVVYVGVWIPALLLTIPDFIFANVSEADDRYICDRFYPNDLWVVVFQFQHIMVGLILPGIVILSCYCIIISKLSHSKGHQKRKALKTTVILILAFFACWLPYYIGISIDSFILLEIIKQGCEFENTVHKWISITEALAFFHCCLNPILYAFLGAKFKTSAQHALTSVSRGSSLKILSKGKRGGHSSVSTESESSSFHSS

CXCL2: chemokine known to have an effect on basophils
increased CXCR4 externalization ex vivo as PGD2 did ([1]; data not shown): None

CCCC(=O)Nc1ncnc2c1ncn2[C@@H]1O[C@@H]2COP(=O)(O)O[C@H]2[C@H]1OC(=O)CCC [db-cAMP, N6,2′-O-dibutyryl-adenosine 3′:5′-cyclic monophosphate]
CXCR4 externalization by mouse WT spleen basophils ([2]; 4 hours ex vivo): externalized | sensitivity of basophils versus T cells to the compound (CXCR4 externalization) ([2]; 4 hours ex vivo): 100 fold

CXCL12: C—X—C motif Ligand 12, chemokine; murine CXCL12 injected ip
in vivo basophil migration to the injection site and draining mesenteric lymph nodes [3]: induced

CCCCCC(=O)CCC1C(=O)CC(O)C1C/C=C\CCCC(=O)O (stereo not shown) [DK-PGD2, 13,14-dihydro-15-keto-PGD2]
CXCR4 expression on other WT splenocytes including T and B cells [2]: significant but much lower increase | CXCR4 expression on spleen WT basophils ex vivo [2]: up-regulation

CCCCC[C@H](O)/C=C/[C@H]1C(=O)C[C@H](O)[C@@H]1C/C=C\CCCC(=O)O [PGD2, 9α,15S-dihydroxy-11-oxo-prosta-5Z,13E-dien-1-oic acid]
CXCR4 expression on mLN basophils ([4]; i.p. injection, 24 hours): increased | basophil accumulation in SLOs and peritoneum ([4]; i.p. injection, 24 hours): drove their accumulation | peripheral basopenia compared to steady state ([4]; ip injection, data not shown): significant, but transient | CXCR4 externalization by T cells ([2]; 1 μM, 4 hours ex vivo): unable | basophil apoptosis ([1]; 1 μM, data not shown): without inducing | CXCR4 expression on basophils ([1]; 18 hours priming, 1 μM PGD2 or sub-optimal anti-IgE): enhanced | PTGDR-2 internalization ([1]; 18 hours, 1 μM, data not shown): induced | FcεRIα expression on basophil surface ([1]; PGD2 priming, data not shown): slight increase | migration towards CXCL12 ([1]; after 18 hours priming): enhanced | CXCR4 surface expression of other immune cell types ([5]; data not shown): didn't show any significant increase | albuminuria ([5]; end of protocol, versus PBS-injected): increased albuminuria | CD19+CD138+ plasma cells in SLOs [5, 7]: increased proportion | IA-IE expression on basophils [5, 7]: increased | basophil accumulation in SLOs [5, 7]: accumulated systemically | immune complexes in the kidney (C3 and IgG deposition) [5, 7]: increased deposition | basophil CXCR4 expression levels ([5]; ip every two days over ten days, data not shown): increased

c1cc(CN2CCCNCCNCCCNCC2)ccc1CN1CCCNCCNCCCNCC1 [AMD3100]
PGD2-induced basophil recruitment in SLOs and peritoneum ([4]; co-injection with PGD2, ip): completely abolished | known effects of CXCR4 antagonism [6]: induce a release of hematopoietic stem cells and interfere with homeostatic functions

O=C(O)CCCCCCC1C(=O)NC(=O)N1CCC(O)C1CCCCC1 (racemic) [BW245c, 3-(3-Cyclohexyl-3-hydroxypropyl)-2,5-dioxo-(R*,S*)-(±)-4-imidazolineheptanioc acid]
CXCR4 expression on other WT splenocytes including T and B cells [2]: significant but much lower increase | CXCR4 expression on spleen WT basophils ex vivo [2]: up-regulation

B1: CCL3: chemokine known to have an effect on basophils (protein, UniProt P10147 24-92, looked up)
C-C motif chemokine 3: SLAADTPTACCFSYTSRQIPQNFIADYFETSSQCSKPGVIFLTKRSRQVCADPSEEWVQKYVSDLELSA
increased CXCR4 externalization ex vivo as PGD2 did ([1]; data not shown): None

B2: CCL5: chemokine known to have an effect on basophils (protein, UniProt P13501 24-91, looked up)
C-C motif chemokine 5: SPYSSDTTPCCFAYIARPLPRAHIKEYFYTSGKCSNPAVVFVTRKNRQVCANPEKKWVREYINSLEMS
increased CXCR4 externalization ex vivo as PGD2 did ([1]; data not shown): None

Reference: patent publication US11559513B2, “PTGDR-1 and/or PTGDR-2 antagonists for preventing and/or treating systemic lupus erythematosus” (INSTITUT NATIONAL DE LA SANTE ET DE LA RECHERCHE MEDICALE …, priority 2015, dated 2023)
